Source: patent US7375109B2, “Glycine-substituted thieno[2,3-d]pyrimidines with combined LH and FSH agonistic activity” (N.V. Organon, priority 2001, dated 2008)

Assays:
human FSH receptor = molecular target: T1, human FSH receptor (Homo sapiens, UniProt P23945); experiment: CHO-FSH in vitro bioactivity (CRE-luciferase reporter); format: cell-based; conditions: CHO cells transfected with human FSH receptor and luciferase reporter gene
T1 construct: expressed in transfected cells; host or cells: CHO cells transfected with human FSH receptor and CRE-luciferase reporter
T1 sequence (P23945 18-695): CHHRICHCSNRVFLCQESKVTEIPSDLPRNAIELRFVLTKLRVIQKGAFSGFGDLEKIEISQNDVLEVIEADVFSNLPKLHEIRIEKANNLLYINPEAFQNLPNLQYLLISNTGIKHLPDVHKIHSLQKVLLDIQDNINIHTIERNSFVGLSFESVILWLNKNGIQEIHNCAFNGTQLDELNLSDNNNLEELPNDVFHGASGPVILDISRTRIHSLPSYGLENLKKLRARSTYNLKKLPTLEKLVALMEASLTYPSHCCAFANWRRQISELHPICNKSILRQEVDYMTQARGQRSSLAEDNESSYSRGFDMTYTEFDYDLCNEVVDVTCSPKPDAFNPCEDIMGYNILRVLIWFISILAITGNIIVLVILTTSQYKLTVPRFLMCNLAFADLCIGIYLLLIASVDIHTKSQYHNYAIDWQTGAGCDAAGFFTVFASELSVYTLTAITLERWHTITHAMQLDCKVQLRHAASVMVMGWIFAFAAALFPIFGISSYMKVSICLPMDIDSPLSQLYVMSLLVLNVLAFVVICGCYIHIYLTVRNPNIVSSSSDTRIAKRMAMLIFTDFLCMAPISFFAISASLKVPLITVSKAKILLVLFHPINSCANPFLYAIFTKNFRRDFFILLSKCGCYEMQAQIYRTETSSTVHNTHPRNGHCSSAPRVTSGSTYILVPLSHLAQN
Method: (§1) It has been shown that compounds of the above mentioned formula I show agonistic LH and FSH activity. […] Typically the FSH activity ranges from an activity of about 0.1% of the LH agonist stimulation to about 10% of the LH agonist stimulation.
(§2) LH agonistic activity of compounds were tested in Chinese Hamster Ovary (CHO) cells stably transfected with the human LH receptor and cotransfected with a cAMP responsive element (CRE)/promotor directing the expression of a firefly luciferase reporter gene. Binding of ligand to the Gs-coupled LH receptor will result in an increase of cAMP, which in turn will induce an increased transactivation of the luciferase reporter construct. The luciferase signal was quantified using a luminescence counter. For test compounds, EC50 values (concentration of test compound causing half-maximal (50%) stimulation) were calculated. For that purpose the software program GraphPad PRISM, version 3.0 (GraphPad software Inc., San Diego) was used.
In a similar way FSH agonistic activity of compounds were tested in CHO cells transfected with the luciferase reporter gene and the human FSH receptor.

human LH receptor = molecular target: T2, human LH receptor (Homo sapiens, UniProt P22888); experiment: CHO-LH in vitro bioactivity (CRE-luciferase reporter); format: cell-based; conditions: CHO cells stably transfected with human LH receptor
T2 construct: expressed in transfected cells; host or cells: Chinese Hamster Ovary (CHO) cells, stably transfected; cotransfected with CRE-luciferase reporter
Method: as §1, §2

T2 sequence (P22888 27-699): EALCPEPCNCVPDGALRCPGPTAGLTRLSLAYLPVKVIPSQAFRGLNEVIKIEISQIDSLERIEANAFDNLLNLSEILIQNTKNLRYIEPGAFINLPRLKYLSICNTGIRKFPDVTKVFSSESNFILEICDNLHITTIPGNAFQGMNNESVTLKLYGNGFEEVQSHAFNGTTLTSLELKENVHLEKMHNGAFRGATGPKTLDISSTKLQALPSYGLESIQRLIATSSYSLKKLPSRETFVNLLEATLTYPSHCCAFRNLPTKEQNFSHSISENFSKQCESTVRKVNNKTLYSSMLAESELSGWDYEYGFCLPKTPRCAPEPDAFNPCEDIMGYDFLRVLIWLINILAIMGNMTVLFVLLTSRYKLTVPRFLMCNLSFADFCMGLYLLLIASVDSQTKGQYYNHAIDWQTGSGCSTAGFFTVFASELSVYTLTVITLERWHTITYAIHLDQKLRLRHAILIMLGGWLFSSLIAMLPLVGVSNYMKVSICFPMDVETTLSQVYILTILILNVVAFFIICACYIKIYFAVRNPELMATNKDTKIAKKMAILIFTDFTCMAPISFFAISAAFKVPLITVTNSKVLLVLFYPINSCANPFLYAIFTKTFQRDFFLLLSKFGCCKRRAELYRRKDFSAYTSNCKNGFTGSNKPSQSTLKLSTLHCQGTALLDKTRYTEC

| Compound | EC50 (human FSH receptor) | EC50 (human LH receptor) |
| --- | --- | --- |
| CSc1nc(-c2cccc(NC(=O)CNC(C)(C)CO)c2)c2c(N)c(C(=O)NC(C)(C)C)sc2n1 [Example 2, tert-Butyl 5-amino-2-methylthio-4-(3-((N-(1-hydroxy-2-methyl-prop-2-yl) -glycinyl)-amino)-phenyl)-thieno[2,3-d]pyrimidine-6-carboxamide] | 806 nM | 5.42 nM |
| COC(=O)CNCC(=O)Nc1cccc(-c2nc(SC)nc3sc(C(=O)NC(C)(C)C)c(N)c23)c1 [Example 3, tert-Butyl 5-amino-2-methylthio-4-(3-((N-(methoxycarbonylmethyl)-glycinyl)-amino)-phenyl)-thieno[2,3-d]pyrimidine-6-carboxamide] | 1440 nM | 5.97 nM |
| COC(=O)[C@H](NCC(=O)Nc1cccc(-c2nc(SC)nc3sc(C(=O)NC(C)(C)C)c(N)c23)c1)C(C)C [Example 5, tert-Butyl 5-amino-2-methylthio-4-(3-((N-(R-1-methoxycarbonyl-2-methyl-prop-1-yl)-glycinyl)-amino)-phenyl)-thieno[2,3-d]pyrimidine-6-carboxamide] | 348 nM | 9.63 nM |
| COCCN(CCOC)CC(=O)Nc1cccc(-c2nc(SC)nc3sc(C(=O)NC(C)(C)C)c(N)c23)c1 [Example 6, tert-Butyl 5-amino-2-methylthio-4-(3-((N,N-bis-(2-methoxyethyl)-glycinyl)-amino)-phenyl)-thieno[2,3-d]pyrimidine-6-carboxamide] | 1180 nM | 10 nM |
| CSc1nc(-c2cccc(NC(=O)CNCC(O)CO)c2)c2c(N)c(C(=O)NC(C)(C)C)sc2n1 (centres unmarked) [Example 7] | 1130 nM | 12.2 nM |
| CSc1nc(-c2cccc(NC(=O)CNC(CO)CO)c2)c2c(N)c(C(=O)NC(C)(C)C)sc2n1 [Example 8] | 1000 nM | 26.4 nM |
| COC(=O)CNCC(=O)Nc1cccc(-c2nc(-c3ccccc3)nc3sc(C(=O)NC(C)(C)C)c(N)c23)c1 [Example 10] | 2480 nM | 10.1 nM |
| CN(CCO)CC(=O)Nc1cccc(-c2nc(-c3ccco3)nc3sc(C(=O)NC(C)(C)C)c(N)c23)c1 [Example 11, tert-Butyl 5-amino-2-(2-furyl)-4-(3-((N-methyl-N-(2-hydroxyethyl)-glycinyl)-amino)-phenyl)-thieno[2,3-d]pyrimidine-6-carboxamide] | 616 nM | 4 nM |
| CC(C)(C)NC(=O)c1sc2nc(-c3ccco3)nc(-c3cccc(NC(=O)CNC(C)(C)CO)c3)c2c1N [Example 12] | 2970 nM | 11.8 nM |
| COC(=O)CNCC(=O)Nc1cccc(-c2nc(-c3ccco3)nc3sc(C(=O)NC(C)(C)C)c(N)c23)c1 [Example 13] | 2550 nM | 12.1 nM |
| CN(CCO)CC(=O)Nc1cccc(-c2nc(-c3cccs3)nc3sc(C(=O)NC(C)(C)C)c(N)c23)c1 [Example 14, tert-Butyl 5-amino-2-(2-thienyl)-4-(3-((N-methyl-N-(2-hydroxyethyl)-glycinyl)-amino)-phenyl)-thieno[2,3-d]pyrimidine-6-carboxamide] | 1440 nM | 5.28 nM |
| COC(=O)CNCC(=O)Nc1cccc(-c2nc(-c3cccs3)nc3sc(C(=O)NC(C)(C)C)c(N)c23)c1 [Example 15, tert-Butyl 5-amino-2-(2-thienyl)-4-(3-((N-(methoxycarbonylmethyl)-glycinyl)-amino)-phenyl)-thieno[2,3-d]pyrimidine-6-carboxamide] | 3210 nM | 18.2 nM |
| COCCN(CCOC)CC(=O)Nc1cccc(-c2nc(-c3cccs3)nc3sc(C(=O)NC(C)(C)C)c(N)c23)c1 [Example 16, tert-Butyl 5-amino-2-(2-thienyl)-4-(3-((N,N-di-(2-methoxyethyl)-glycinyl)-amino)-phenyl)-thieno[2,3-d]pyrimidine-6-carboxamide] | 6810 nM | 21.3 nM |
| CN(CCO)CC(=O)Nc1cccc(-c2nc(N(C)C)nc3sc(C(=O)NC(C)(C)C)c(N)c23)c1 [Example 18, tert-Butyl 5-amino-2-(N,N-dimethylamino)-4-(3-((N-methyl-N-(2-hydroxyethyl)-glycinyl)-amino)-phenyl)-thieno[2,3-d]pyrimidine-6-carboxamide] | 1630 nM | 14.5 nM |
| CCNc1nc(-c2cccc(NC(=O)CNCC(=O)OC)c2)c2c(N)c(C(=O)NC(C)(C)C)sc2n1 [Example 19, tert-Butyl 5-amino-2-ethylamino-4-(3-((N-(methoxycarbonylmethyl)-glycinyl)-amino)-phenyl)-thieno[2,3-d]pyrimidine-6-carboxamide] | 2300 nM | 22.9 nM |
| CCN(CCOC)CC(=O)Nc1cccc(-c2nc(NC(C)C)nc3sc(C(=O)NC(C)(C)C)c(N)c23)c1 [Example 20, tert-Butyl 5-amino-2-isopropylamino-4-(3-((N-ethyl-N-(2-methoxyethyl)-glycinyl)-amino)-phenyl)-thieno[2,3-d]pyrimidine-6-carboxamide] | 2950 nM | 42.4 nM |
| C=CCNc1nc(-c2cccc(NC(=O)CNCC(=O)OC)c2)c2c(N)c(C(=O)NC(C)(C)C)sc2n1 [Example 21, tert-Butyl 5-amino-2-allylamino-4-(3-((N-(methoxycarbonylmethyl)-glycinyl)-amino)-phenyl)-thieno[2,3-d]pyrimidine-6-carboxamide] | 560 nM | 57 nM |
| CCN(CCOC)CC(=O)Nc1cccc(-c2nc(OC)nc3sc(C(=O)NC(C)(C)C)c(N)c23)c1 [Example 22, tert-Butyl 5-amino-2-methoxy-4-(3-((N-ethyl-N-(2-methoxyethyl)-glycinyl)-amino)-phenyl)-thieno[2,3-d]pyrimidine-6-carboxamide] | 953 nM | 11.6 nM |
| C=CCOc1nc(-c2cccc(NC(=O)CN(CC)CCOC)c2)c2c(N)c(C(=O)NC(C)(C)C)sc2n1 [Example 23, tert-Butyl 5-amino-2-allyloxy-4-(3-((N-ethyl-N-(2-methoxyethyl)-glycinyl)-amino)-phenyl)-thieno[2,3-d]pyrimidine-6-carboxamide] | 1740 nM | 36.8 nM |
| CCN(CCOC)CC(=O)Nc1cccc(-c2nc(OC(C)C)nc3sc(C(=O)NC(C)(C)C)c(N)c23)c1 [Example 24, tert-Butyl 5-amino-2-isopropoxy-4-(3-((N-ethyl-N-(2-methoxyethyl)-glycinyl)-amino)-phenyl)-thieno[2,3-d]pyrimidine-6-carboxamide] | 2510 nM | 78.2 nM |
| CC(C)(C)NC(=O)c1sc2nc(-c3ccncc3)nc(-c3cccc(NC(=O)CNC(C)(C)CO)c3)c2c1N [Example 25, tert-Butyl 5-amino-2-(4-pyridyl)-4-(3-((N-(1-hydroxy-2-methyl-prop-2-yl) -glycinyl)-amino)-phenyl)-thieno[2,3-d]pyrimidine-6-carboxamide] | 400 nM | 34.7 nM |
| COCCN(CCOC)CC(=O)Nc1cccc(-c2nc(-c3ccncc3)nc3sc(C(=O)NC(C)(C)C)c(N)c23)c1 [Example 26, tert-Butyl 5-amino-2-(4-pyridyl)-4-(3-((N,N-bis-(2-methoxyethyl)-glycinyl)-amino)-phenyl)-thieno[2,3-d]pyrimidine-6-carboxamide] | 1230 nM | 38.2 nM |
